Assay results from patent US20100249064A1, “METHODS AND COMPOSITIONS FOR TREATING DISEASES AND CONDITIONS INVOLVING HIGHER MOLECULAR WEIGHT HYALURONAN” (University of Chicago, priority 2007, published 2010).
Entries after “also recorded” stand apart in the source; their conditions may differ.

Legend:
purified HABP2 = molecular target: T1, purified HABP2 (Homo sapiens, UniProt Q14520); experiment: HABP2 protease assay (QuantiCleave, succinylated casein); assay type: biochemical; conditions: purified HABP2, various concentrations of HA
T1 construct: host or cells: human pulmonary endothelial cells (EC); secreted into the medium, immunoprecipitated with anti-HABP2 antibody
Description: HABP2 protease assay. Protease activity is measured using the QuantiCleave™ Protease Assay Kit (Pierce). Briefly, the immunobeads are incubated with succinylated casein for one hour followed by development with TNBSA (2,4,6-trinitrobenzene sulfonic acid) and read at 450 nm.
HABP2 protein purification and protease activity determination. Media from HABP2 overexpression vector-transfected EC (Origene) was immunoprecipitated with anti-HABP2 antibody-conjugated Sepharose beads (Sigma). The immunobeads were then extensively washed in 50 mM Borate, pH=8.5 and eluted with 1M NaCl with 0.1% NP-40 and dialyzed against a 1,000 fold excess of 50 mM Borate, pH=8.5. Protein assays were performed to quantitate total protein. The purified protein was run on SDS-PAGE and either immunoblotted with anti-HABP2 antibody (Novus Biologicals) or stained with Imperial™ protein stain (Pierce) to check for purity. Protease activity was measured using the QuantiCleave™ Protease Assay Kit (Pierce). Briefly, the immunobeads were incubated with succinylated casein for one hour followed by development with TNBSA (2,4,6-trinitrobenzene sulfonic acid) and read at 450 nm.
Determination of the role of HMW-HA/HABP2/C1INH interactions in regulating angiogenesis in vitro. Human pulmonary EC (Cambrex), grown in EBM-2 complete medium (Cambrex) at 37° C. in a humidified atmosphere of 5% CO2, 95% air, with passages 6-10 used for experimentation will be treated with or without 100 nM HMW-HA and/or 100 nM VEGF in the presence or absence of HABP2 and/or C1INH overexpression vectors (Origene), exogenous purified recombinant HABP2 polyanion binding domain and/or C1INH (Novus Biologicals) and/or siRNA (scramble, HABP2 or C1INH). For HABP2 protease activity determination, media from HABP2 overexpressing EC (see above) was immunoprecipitated with anti-HABP2 antibody-conjugated Sepharose beads (Sigma). The immunobeads were then extensively washed in 50 mM Borate, pH=8.5 and protease activity was measured using the QuantiCleave™ Protease Assay Kit (Pierce). Briefly, the immunobeads were incubated with succinylated casein for one hour followed by development with TNBSA (2,4,6-trinitrobenzene sulfonic acid) and read at 450 nm.

HPMVEC = experiment: EC migration (transwell); assay type: cell-based, human; conditions: 100 nM HA with or without 100 nM VEGF, or siRNA 48 hours then VEGF; 18 hours
Description: Determination of the role of HMW-HA/CD44 interactions in regulating hyaluronidase activity and angiogenesis in vitro. Human pulmonary microvascular EC (HPMVEC) (Cambrex), grown in EBM-2 complete medium (Cambrex) at 37° C. in a humidified atmosphere of 5% CO2, 95% air, with passages 6-10 used for experimentation was treated with or without 100 nM HMW-HA and/or 100 nM VEGF in the presence or absence of CD44 isoform-specific blocking antibodies (EMD Biosciences), siRNA (scramble, CD44, Hyal-1, Hyal-2, Hyal-3 or Hyal-4) and the potent hyaluronidase inhibitor, L-ascorbic acid 6-hexadecanoate (Botzki et al., 2004) (Sigma). […] Treated EC will either be analyzed for protein expression, hyaluronidase activity or VEGF-induced proliferation, migration or tube formation. […] Cells from the upper and lower chamber were quantitated using the CellTiter96™ MTS assay (Promega, San Luis Obispo, Calif.) and read at 492 nm. % migration was defined as the # of cells in the lower chamber […] the number of cells in both the upper and lower chamber. Each assay was set up in triplicate, repeated at least five times and analyzed statistically by Student's t test (with statistical significance set at P<0.05). […] The in vitro cell proliferation assay was analyzed by measuring increases in cell number using the CellTiter96™ MTS assay (Promega, San Luis Obispo, Calif.) and read at 492 nm. […]

RhoA and Rac = experiment: Rho family activation assay; assay type: cell-based, human; conditions: 100 nM HA; for Rac1 activation: LMW-HA 5 min, HMW-HA 5, 15, 30 min
Description: Rho Family Activation Assay—The RhoA and Rac activation assays using human lung EC were performed as described (Ren et al., 1999).

Human pulmonary EC = experiment: TER, Example 5; assay type: cell-based; conditions: for change in TER: human pulmonary EC, Example 5
Description: Measurement of TransEC Electrical Resistance (TER). EC were grown to confluence in polycarbonate wells containing evaporated gold microelectrodes, and TER measurements performed using an electrical cell-substrate impedance sensing system (Applied Biophysics, Troy, N.Y.) as previously described (Garcia et al., 2001). TER values from each microelectrode were pooled at discrete time points and plotted versus time as the mean±S.E.

T1 sequence (Q14520 24-560): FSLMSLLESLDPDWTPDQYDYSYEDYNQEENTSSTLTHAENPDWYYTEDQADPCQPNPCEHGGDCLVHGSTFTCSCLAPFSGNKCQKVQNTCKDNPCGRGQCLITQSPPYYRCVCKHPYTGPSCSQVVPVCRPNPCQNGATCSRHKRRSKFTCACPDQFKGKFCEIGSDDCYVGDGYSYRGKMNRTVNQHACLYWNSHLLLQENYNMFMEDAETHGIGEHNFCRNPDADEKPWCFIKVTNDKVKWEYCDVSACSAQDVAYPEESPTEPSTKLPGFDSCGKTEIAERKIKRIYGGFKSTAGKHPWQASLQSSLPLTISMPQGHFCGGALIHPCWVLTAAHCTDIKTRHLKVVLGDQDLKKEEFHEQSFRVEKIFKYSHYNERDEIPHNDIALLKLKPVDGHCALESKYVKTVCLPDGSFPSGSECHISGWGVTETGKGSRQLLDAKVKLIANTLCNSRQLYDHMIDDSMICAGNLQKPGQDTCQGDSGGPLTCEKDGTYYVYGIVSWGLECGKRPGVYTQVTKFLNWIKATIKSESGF

HABP2 protease activity (purified HABP2) | HABP2 protease activity (purified HABP2; listed as high MW hyaluronan) | Substance | HABP2 protease activity (purified HABP2; listed as High molecular weight hyaluronan) | EC migration (% Migration) (HPMVEC) | Rac1 activation (RhoA and Rac) | time at which HMW-HA-induced increase in TER reached plateau (Human pulmonary EC) | protection from LPS-induced EC barrier disruption (TER) (Human pulmonary EC; HMW-HA (100 ng/ml), at 6 hours) | change in TER (Human pulmonary EC; listed as High MW HA) | HABP2 protease activity (purified HABP2; listed as low MW hyaluronan) | RhoA activation (RhoA and Rac; 15-30 min) | change in TER (Human pulmonary EC; listed as low MW HA)
inhibits | reduced its activity | hyaluronan [HMW-HA] | directly binds and inhibits the enzymatic activity of HABP2 | inhibited VEGF-induced hyaluronidase expression, EC proliferation (A) and migration (B) | induced Rac1 activation | ~3 h | protects from LPS-induced EC barrier disruption | dose-dependent increase in TER | – | – | –
activates; also recorded: enhances | – | hyaluronan [LMW-HA, reference compound] | – | promotes EC proliferation and migration | induced Rac1 activation | – | – | – | increased the protease activity of purified HABP2 in a dose-dependent manner | promoted RhoA activation | biphasic response ultimately leading to EC barrier disruption
